Laboratory results: paper PMC2634724 (British Journal of Cancer, 2009)
Several values for one entry are separate records, joined by “and”; a condition that tells them apart may be missing. Equal entries are not always repeated. Where two headings read alike, the source gives them in different places.

How the values were obtained:
advanced solid tumours [1] = conditions: prior docetaxel therapy in the same two patients with metastatic breast cancer; patient history; cited from earlier work
S6K1 [2] = tested on: S6K1; parameters: method as in O'Donnell et al, 2008; conditions: ref O'Donnell et al, 2008, cited from earlier work
tumour models = tested on: tumour models; parameters: method as in O'Reilly et al, 2003; conditions: schedule effect, ref O'Reilly et al, 2003; cited from earlier work
[3] = Pharmacokinetics of everolimus in whole blood (LC-MS, non-compartmental); assay type: in vivo, human; conditions: for Tmax / Cmax / half-life: whole blood; for Cmax / half-life: mean (s.d.)
Method: (§1) For everolimus, sampling was carried out predose and 1, 2, 4, 6, 12, 24, 48, 96, and 168 h after administration. Everolimus was measured in whole blood by liquid chromatography–mass spectrometry after liquid extraction, its lower limit of quantification being 0.368 ng ml^−1. […] Pharmacokinetic parameters were derived by standard non-compartmental methods of analysis (WinNonlin Pro 5.0). The measured parameters included the maximum plasma concentration (Cmax), time to reach Cmax (tmax), and the truncated area under the time–concentration curve (AUClast).

[4] = tested on: patients with advanced solid tumours; test: Safety and dose-limiting toxicity, NCI Common Toxicity Criteria version 2.0; conditions: everolimus + paclitaxel, 16 patients
Method: (§2) Patients receiving at least one dose of study drug medications were evaluated weekly for safety using the National Cancer Institute Common Toxicity Criteria version 2.0. Safety assessments consisted of clinical examinations and scheduled laboratory evaluations and electrocardiograms. […] Treatment with the combination was discontinued on any grade 4 toxicity or failure to return to grade ⩽1 within 2 weeks. […] The concomitant use of any drugs that may interfere with cytochrome CYP450-3A was discouraged. […] Anti-tumour activity was assessed using Response Evaluation Criteria in Solid Tumors.
(§3) Dose-limiting toxicity was defined as occurring during the first 28-day cycle, suspected of being drug related, and included any grade 4 toxicity, any grade 3 non-haematological toxicity despite preventive therapy, or grade ⩾2 neutropenia, or thrombocytopenia failing to revert to grade ⩽1 within 2 weeks. Three patients were entered per dose level, with expansion to six patients if one of three patients experienced DLT. If DLT occurred in none of three or no more than one of six patients in dose level 1, doses would be escalated to dose level 2. Dose-limiting toxicity in more than one of three or more than two of six patients would be considered unacceptable.

[5] = as a single agent; no reference given; cited from earlier work
[6] = tested on: patients with advanced cancers; parameters: method as in Tabernero et al, 2008; conditions: single-agent everolimus 70 mg weekly; ref Tabernero et al, 2008; cited from earlier work
[7] = tested on: trastuzumab-resistant breast cancer; parameters: method as in André et al, 2008; conditions: everolimus and paclitaxel with trastuzumab; population pre-treated with trastuzumab and taxanes; preliminary; ref André et al, 2008; cited from earlier work
[8] = tested on: patients with advanced solid tumours; conditions: human, in vivo
Method: as §2, §3

advanced solid tumours [9] = test: Anti-tumour activity, Response Evaluation Criteria in Solid Tumors; assay type: in vivo, human
Method: as §2

S6K1 [10] = tested on: S6K1; parameters: method as in Tabernero et al, 2008; conditions: weekly dosing (20, 50, or 70 mg), immunohistochemistry; ref Tabernero et al, 2008; cited from earlier work
clinical = conditions: human, in vivo, iv
Method: as §1

[11] = as a single agent; cited from earlier work
cervical cancer = tested on: cervical cancer; parameters: method as in Mori et al, 2007; conditions: weekly paclitaxel, cervical cancer patients; ref Mori et al, 2007; cited from earlier work
[12] = human, po, 15 mg, everolimus 15 mg oral alone, dose level 1, n=3
[13] = human, po, 30 mg, everolimus 30 mg oral alone, dose level 2, n=4
[14] = human, po, everolimus 15 mg oral with paclitaxel 80 mg m^−2, dose level 1, n=3
[15] = human, po, everolimus 30 mg oral with paclitaxel 80 mg m^−2, dose level 2, n=7
[16] = everolimus + paclitaxel, 16 patients

Q: Which “Duration of tumour stabilisation previously recorded” value (advanced solid tumours [1]) does the source give for `CC(=O)O[C@@]12CO[C@@H]1C[C@H](O)[C@@]1(C)C(=O)[C@H](O)C3=C(C)[C@@H](OC(=O)[C@H](O)[C@@H](NC(=O)OC(C)(C)C)c4ccccc4)C[C@@](O)([C@@H](OC(=O)c4ccccc4)[C@H]21)C3(C)C` [docetaxel] here?
A: 3.7 months and 3.5 months

Q: What does the source list for `CO[C@H]1C[C@@H]2CC[C@@H](C)[C@@](O)(O2)C(=O)C(=O)N2CCCC[C@H]2C(=O)O[C@H]([C@H](C)C[C@@H]2CC[C@@H](OCCO)[C@H](OC)C2)CC(=O)[C@H](C)/C=C(\C)[C@@H](O)[C@@H](OC)C(=O)[C@H](C)C[C@H](C)/C=C/C=C/C=C/1C` [everolimus, Everolimus]?
A: Duration of sustained inhibition of S6K1 activity in peripheral blood mononuclear cells (S6K1 [2]; single-agent everolimus at doses ⩾20 mg per week): at least 7 days; Dose with consistent inhibition of S6K1 activity in peripheral blood mononuclear cells (S6K1 [2]; single-agent everolimus): ≥ 20 mg per week; Effect of in vivo combination with paclitaxel (tumour models): additive and synergistic effects; Tmax ([3]; everolimus 30 mg oral with paclitaxel 80 mg m^−2, dose level 2, n=7, median (range)): 1.0 (1–4) h; Change in tmax, Cmax and AUClast when given in combination ([3]; everolimus with paclitaxel vs alone): no meaningful change; Cmax [3, 12]: 75.2 ± 37.4 ng/mL; half-life [3, 12]: 29.5 ± 8.5 h; Cmax [3, 13]: 93 ± 28.6 ng/mL; half-life [3, 13]: 26.9 ± 7.1 h; Cmax [3, 14]: 57.9 ± 35.8 ng/mL; half-life [3, 14]: 24.6 ± 3.6 h; Cmax [3, 15]: 94.5 ± 60.1 ng/mL; half-life [3, 15]: 27.4 ± 5.6 h; Tmax ([3]; human, po, read-out: tmax): 1 h; Tmax ([3]; human, everolimus 15 mg oral alone, dose level 1, n=3, median (range), read-out: tmax): 1 h; Tmax ([3]; human, everolimus 30 mg oral alone, dose level 2, n=4, median (range), read-out: tmax): 1 h; Change of everolimus AUC with concomitant fluconazole ([3]; one patient at dose level 2 (everolimus 30 mg), concomitant medication with fluconazole): threefold increase; Toxicity-related death [4]: No toxicity-related death; Terminal half-life [5]: about 30 h; Dose-limiting toxicities observed [6]: grade 3 stomatitis, neutropenia, and hyperglycaemia; Rate of response [7]: 46%; Dose interruptions in any cycle, n (%) [8]: 8 (50.0); Objective response (advanced solid tumours [9]; [16]): No objective response; Tumour stabilisation reported, patients (advanced solid tumours [9]; [16]): 11 patients; Sustained tumour stabilisation for more than 4 months, patients (advanced solid tumours [9]; everolimus + paclitaxel, breast (two), ovarian (two), thyroid carcinoma (one), liposarcoma (one)): six; Duration of tumour stabilisation (advanced solid tumours [9]; two patients with metastatic breast cancer at dose level 2 (everolimus 30 mg + paclitaxel)): > 6 months; Dose with confirmed inhibition of S6K1 in paired tumour tissue biopsies (S6K1 [10]): ≥ 20 mg

Q: Which Tmax (clinical) does the source give for `CC(=O)O[C@H]1C(=O)[C@@]2(C)[C@H]([C@H](OC(=O)c3ccccc3)[C@]3(O)C[C@H](OC(=O)[C@H](O)[C@@H](NC(=O)c4ccccc4)c4ccccc4)C(C)=C1C3(C)C)[C@]1(OC(C)=O)CO[C@@H]1C[C@@H]2O` [paclitaxel] here?
A: 4.8 min

Q: And the Terminal half-life [11]?
A: about 10 h

Q: What about the “Time apoptosis could be induced after treatment” value (cervical cancer) of the same compound?
A: up to 1 week

Q: What about the “Time paclitaxel could be detected in tissue” value (cervical cancer) of the same compound?
A: up to 6 days
